{
  "source": "patent US20250090567A1",
  "about": "“5-FU AND RNAOG COMBINED IMMUNOCHEMOTHERAPY FOR PANCREATIC CANCER TREATMENT” (ARIZONA BOARD OF REGENTS ON BEHALF OF ARIZONA STATE …, priority 2022, published 2025)",
  "system": "MiaPaca-2-iRFP tumors",
  "assay": "In vivo efficacy, subcutaneous MiaPaca-2-iRFP xenograft, intratumor treatment",
  "conditions": "nude mice, twice a week, total 7 times",
  "description": "FIG. 4A. schematic illustration of tumor inoculation and treatment schedule. Nude mice received subcutaneous (SC) injection of […] MiaPaca2-iRFP on day 0. Starting on week 4, the mice received intratumor injections of PBS, 5FU, RNAOG, RNAOG+5FU, or 5FU-RNAOG twice a week for total 7 times.\nFIG. 4B. Tumor progression monitored by LI-COR Imaging of near infrared fluorescence intensity from the MiaPaca2-iRFP cell line that expresses iRFP.\nFIG. 4C. Tumor dimensions were also measured for each treatment.\nFIG. 4D. The survival curve of each treatment group. **and***indicate p<0.01 and p<0.001, respectively.\nThe in vitro tumor cell suppression effect of 5FU-RNAOG justified further investigation as to whether the combination of the RNAOG with the anticancer drug 5-fluorouracil (5FU) exerts anti-tumor activity in vivo. The human pancreatic cancer cell line, MiaPaca-2, was used as the model because it forms solid tumors in nude mice upon subcutaneous injection (SC). Specifically, MiaPaca-2 cells were engineered to express near infrared fluorescent protein (iRFP) which allows for real-time monitoring of tumor growth of live animals, especially when the tumor load is low. […] Tumor progression was monitored via the fluorescent intensity of iRFP (FIG. 4B), as well as the directly measured tumor size (FIG. 4C). […]",
  "data": [
    {"smiles": "O=c1[nH]cc(F)c(=O)[nH]1", "note": "[5FU, 5-fluorouracil]", "values": [
      {"measurement": "tumor progression (iRFP fluorescence intensity and tumor size)", "result": "developed large tumors"}
    ]}
  ]
}
